According to ChEMBL document CHEMBL1147563, “Solid-phase synthesis and SAR of 4-carboxy-2-azetidinone mechanism-based tryptase inhibitors” (Bioorg Med Chem Lett, 2004):
pIC50: −log10 of the molar value.

Assays:
[1] = molecular target: Tryptase (Homo sapiens, UniProt Q9BZJ3+Q15661+Q9NRR2); assay: Inhibitory activity against human tryptase
[2] = molecular target: T1, Serine protease 1 (Bos taurus, UniProt P00760); assay: Inhibitory activity against bovine trypsin
T1 sequence (P00760 whole entry): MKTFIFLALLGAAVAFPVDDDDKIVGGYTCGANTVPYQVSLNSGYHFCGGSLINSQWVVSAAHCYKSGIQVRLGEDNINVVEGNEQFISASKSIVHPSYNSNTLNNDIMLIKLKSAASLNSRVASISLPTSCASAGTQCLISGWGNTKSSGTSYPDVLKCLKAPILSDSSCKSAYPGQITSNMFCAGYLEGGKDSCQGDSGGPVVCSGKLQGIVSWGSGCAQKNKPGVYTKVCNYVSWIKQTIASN

[3] = molecular target: Coagulation factor X (Homo sapiens, UniProt P00742); assay: Inhibitory activity against Coagulation factor X
[4] = molecular target: Plasminogen (Rattus norvegicus, UniProt Q01177); assay: Inhibitory activity against plasmin
[5] = molecular target: Prothrombin (Homo sapiens, UniProt P00734); assay: Inhibitory activity against thrombin
[6] = molecular target: Tissue-type plasminogen activator (Homo sapiens, UniProt P00750); assay: Inhibitory activity against tissue type plasminogen activator
[7] = molecular target: Serine protease 1 (Homo sapiens, UniProt P07477); assay: Inhibitory activity against trypsin
[8] = molecular target: Urokinase-type plasminogen activator (Homo sapiens, UniProt P00749); assay: Inhibitory activity against Urokinase-type plasminogen activator
[9] = molecular target: T2, Serine protease 1 (Bos taurus) (UniProt P00760); assay: Inhibition of bovine trypsin at 0.2 uM
T2 sequence (whole entry): T1 sequence (P00760 whole entry)

Sequence of Plasminogen (Q01177 97-581 limits assumed): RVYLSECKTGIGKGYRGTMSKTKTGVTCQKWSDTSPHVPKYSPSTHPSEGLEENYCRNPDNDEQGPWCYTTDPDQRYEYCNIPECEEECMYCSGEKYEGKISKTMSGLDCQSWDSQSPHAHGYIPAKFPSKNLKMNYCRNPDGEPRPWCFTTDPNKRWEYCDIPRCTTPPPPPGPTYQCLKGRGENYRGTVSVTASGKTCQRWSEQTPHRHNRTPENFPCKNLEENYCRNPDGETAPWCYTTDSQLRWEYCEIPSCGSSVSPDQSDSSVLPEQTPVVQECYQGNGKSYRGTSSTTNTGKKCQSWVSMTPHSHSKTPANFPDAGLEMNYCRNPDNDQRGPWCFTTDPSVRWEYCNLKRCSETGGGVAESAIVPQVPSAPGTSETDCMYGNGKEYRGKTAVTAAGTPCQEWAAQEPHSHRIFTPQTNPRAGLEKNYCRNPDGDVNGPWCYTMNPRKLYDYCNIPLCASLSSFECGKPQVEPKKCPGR
Sequence of Plasminogen (Q01177 582-812 limits assumed): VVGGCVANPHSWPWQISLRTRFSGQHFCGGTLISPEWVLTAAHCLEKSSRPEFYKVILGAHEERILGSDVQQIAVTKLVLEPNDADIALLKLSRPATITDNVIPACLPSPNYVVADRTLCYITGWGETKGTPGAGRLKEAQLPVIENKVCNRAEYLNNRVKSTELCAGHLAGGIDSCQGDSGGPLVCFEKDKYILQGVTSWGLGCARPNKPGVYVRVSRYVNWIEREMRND
Sequence of Serine protease 1 (Homo sapiens, UniProt P07477) (P07477 whole entry): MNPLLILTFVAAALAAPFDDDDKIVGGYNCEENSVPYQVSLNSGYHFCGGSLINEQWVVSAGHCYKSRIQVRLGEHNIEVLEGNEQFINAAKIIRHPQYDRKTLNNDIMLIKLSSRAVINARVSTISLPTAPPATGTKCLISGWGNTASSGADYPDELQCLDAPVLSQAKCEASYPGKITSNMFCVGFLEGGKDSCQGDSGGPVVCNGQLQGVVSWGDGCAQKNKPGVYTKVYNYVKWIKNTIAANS
Sequence of Tissue-type plasminogen activator (P00750 whole entry): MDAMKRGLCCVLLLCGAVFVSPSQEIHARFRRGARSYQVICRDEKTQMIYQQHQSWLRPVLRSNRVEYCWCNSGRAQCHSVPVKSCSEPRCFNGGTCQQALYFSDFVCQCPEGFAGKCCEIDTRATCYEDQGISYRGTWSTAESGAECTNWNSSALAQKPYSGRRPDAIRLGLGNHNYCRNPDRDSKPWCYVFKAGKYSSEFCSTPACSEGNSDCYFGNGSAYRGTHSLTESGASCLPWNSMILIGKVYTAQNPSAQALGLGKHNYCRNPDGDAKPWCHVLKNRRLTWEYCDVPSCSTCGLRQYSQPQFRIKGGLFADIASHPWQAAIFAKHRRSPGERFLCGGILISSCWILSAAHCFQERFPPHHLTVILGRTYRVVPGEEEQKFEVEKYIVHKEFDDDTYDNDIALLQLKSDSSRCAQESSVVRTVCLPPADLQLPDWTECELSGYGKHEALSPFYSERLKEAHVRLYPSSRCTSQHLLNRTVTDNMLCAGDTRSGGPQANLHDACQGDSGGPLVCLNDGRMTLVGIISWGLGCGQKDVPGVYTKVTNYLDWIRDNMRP
Sequence of Coagulation factor X (P00742 41-179 limits assumed): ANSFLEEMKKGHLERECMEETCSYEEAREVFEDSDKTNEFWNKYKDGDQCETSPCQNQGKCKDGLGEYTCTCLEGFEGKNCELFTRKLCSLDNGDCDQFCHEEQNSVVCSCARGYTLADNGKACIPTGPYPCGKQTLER
Sequence of Coagulation factor X (P00742 235-488 limits assumed): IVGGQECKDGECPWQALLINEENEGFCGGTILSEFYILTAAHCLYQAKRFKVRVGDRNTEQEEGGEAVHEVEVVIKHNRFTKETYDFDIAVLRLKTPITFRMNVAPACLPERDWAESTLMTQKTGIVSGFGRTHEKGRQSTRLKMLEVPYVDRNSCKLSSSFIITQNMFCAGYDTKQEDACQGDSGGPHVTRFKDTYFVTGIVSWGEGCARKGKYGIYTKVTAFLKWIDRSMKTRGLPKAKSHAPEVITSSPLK

SMILES	IC50 [1] [nM]	pIC50 [2]	inhibition [9] [%]	further results
N=C(N)N1CCC[C@H](C[C@H]2C(=O)N(C(=O)N3CCN(C(=O)CCCCCc4ccccc4)CC3)[C@@H]2C(=O)O)C1	1.7	5.24	–	–
CC(C)(C)NC(=O)N1CCN(C(=O)N2C(=O)[C@H](CC3CCNCC3)[C@H]2C(=O)O)CC1	30	5.72	–	pIC50 [3]: < 5.96; pIC50 [4]: 6.60; pIC50 [5]: < 5.96; pIC50 [6]: < 5.96; pIC50 [7]: 7.21; pIC50 [8]: 7.47
CC(=O)Nc1ccsc1C(=O)N1CCN(C(=O)N2C(=O)[C@H](CC3CCNCC3)C2C(=O)O)CC1 (single isomer, unassigned)	190	–	68	–
O=C(O)C1[C@@H](CC2CCNCC2)C(=O)N1C(=O)N1CCN(C(=O)Cc2ccc(Oc3ccccc3)cc2)CC1 (single isomer, unassigned)	5	6.02	–	–
O=C(O)C1[C@@H](CC2CCNCC2)C(=O)N1C(=O)N1CCN(C(=O)Cc2ccc3c(c2)CCCC3)CC1 (single isomer, unassigned)	30	–	18	–
O=C(O)C1[C@@H](CC2CCNCC2)C(=O)N1C(=O)N1CCN(C(=O)CCCCCc2ccc3ccccc3c2)CC1 (single isomer, unassigned)	1	6.49	–	–
COc1cccc(CCC(=O)N2CCN(C(=O)N3C(=O)[C@H](CC4CCNCC4)C3C(=O)O)CC2)c1 (single isomer, unassigned)	14	6.09	–	–
O=C(O)C1[C@@H](CC2CCNCC2)C(=O)N1C(=O)N1CCN(C(=O)Cc2cccc(Oc3ccccc3)c2)CC1 (single isomer, unassigned)	17	6.01	–	–
O=C(O)C1[C@@H](CC2CCNCC2)C(=O)N1C(=O)N1CCN(C(=O)CCCCc2ccccc2)CC1 (single isomer, unassigned)	6	6.09	–	–
O=C(O)C1[C@@H](CC2CCNCC2)C(=O)N1C(=O)N1CCN(C(=O)c2ccccc2-c2ccccc2)CC1 (single isomer, unassigned)	42	–	46	–
O=C(O)C1[C@@H](CC2CCNCC2)C(=O)N1C(=O)N1CCN(C(=O)c2cc3ccccc3o2)CC1 (single isomer, unassigned)	21	–	89	–
Cc1onc(-c2ccccc2)c1C(=O)N1CCN(C(=O)N2C(=O)[C@H](CC3CCNCC3)C2C(=O)O)CC1 (single isomer, unassigned)	290	–	31	–
O=C(O)C1[C@@H](CC2CCNCC2)C(=O)N1C(=O)N1CCN(C(=O)c2ccccc2CCc2ccccc2)CC1 (single isomer, unassigned)	140	–	60	–
O=C(O)C1[C@@H](CC2CCNCC2)C(=O)N1C(=O)N1CCN(C(=O)CCCCCCc2ccccc2)CC1 (single isomer, unassigned)	5	5.89	–	–
CC1=NN(c2ccc(C(=O)N3CCN(C(=O)N4C(=O)[C@H](CC5CCNCC5)C4C(=O)O)CC3)cc2)C(=O)C1 (single isomer, unassigned)	380	–	91	–
O=C(O)C1[C@@H](CC2CCNCC2)C(=O)N1C(=O)N1CCN(C(=O)CCCC2CCCCC2)CC1 (single isomer, unassigned)	24	–	40	–
O=C(O)C1[C@@H](CC2CCNCC2)C(=O)N1C(=O)N1CCN(C(=O)c2cccc(Oc3ccccc3)c2)CC1 (single isomer, unassigned)	15	–	78	–
Cc1cccc(CCC(=O)N2CCN(C(=O)N3C(=O)[C@H](CC4CCNCC4)C3C(=O)O)CC2)c1 (single isomer, unassigned)	13	5.92	–	–
O=C(O)C1[C@@H](CC2CCNCC2)C(=O)N1C(=O)N1CCN(C(=O)c2ccc(Oc3ccccc3)cc2)CC1 (single isomer, unassigned)	7	6.85	–	–
O=C(O)C1[C@@H](CC2CCNCC2)C(=O)N1C(=O)N1CCN(C(=O)Cc2ccc(OCc3ccccc3)cc2)CC1 (single isomer, unassigned)	1	6.36	–	pIC50 [4]: 6.42; pIC50 [6]: < 4.48; pIC50 [7]: 6.36; pIC50 [8]: 5.92
O=C(NCCCC(=O)N1CCN(C(=O)N2C(=O)[C@H](CC3CCNCC3)C2C(=O)O)CC1)OCc1ccccc1 (single isomer, unassigned)	6	5.92	–	–
O=C(O)C1[C@@H](CC2CCNCC2)C(=O)N1C(=O)N1CCN(C(=O)CCCCCc2ccccc2)CC1 (single isomer, unassigned)	–	6.51	–	pIC50 [4]: 6.77; pIC50 [6]: < 4.48; pIC50 [7]: 6.51; pIC50 [8]: 6.01
Cc1ccc(C2=CN=C(CCC(=O)N3CCN(C(=O)N4C(=O)[C@H](CC5CCNCC5)C4C(=O)O)CC3)C2=O)cc1 (single isomer, unassigned)	5	5.74	–	–

SMILES	IC50 [1] [nM]	pIC50 [2]	inhibition [9] [%]	further results
O=C(O)C1[C@@H](CC2CCNCC2)C(=O)N1C(=O)N1CCN(C(=O)CCCCCCCc2ccccc2)CC1 (single isomer, unassigned)	5	5.89	–	–
O=C(CCC(=O)N1CCN(C(=O)N2C(=O)[C@H](CC3CCNCC3)C2C(=O)O)CC1)NCCc1ccccc1 (single isomer, unassigned)	17	5.72	–	–
O=C1CC[C@@H](C(=O)N2CCN(C(=O)N3C(=O)[C@H](CC4CCNCC4)C3C(=O)O)CC2)N1 (single isomer, unassigned)	170	–	69	–
O=C(O)C1[C@@H](CC2CCNCC2)C(=O)N1C(=O)N1CCN(C(=O)c2ccc(CCCc3ccccc3)cc2)CC1 (single isomer, unassigned)	6	6.51	–	–
O=C(O)C1[C@@H](CC2CCNCC2)C(=O)N1C(=O)N1CCN(C(=O)CCCc2ccc3ccccc3c2)CC1 (single isomer, unassigned)	10	6.22	–	–
O=C(O)C1[C@@H](CC2CCNCC2)C(=O)N1C(=O)N1CCN(C(=O)CCCc2nc(-c3ccc(Cl)cc3)no2)CC1 (single isomer, unassigned)	5	6.82	–	–
O=C(O)C1[C@@H](CC2CCNCC2)C(=O)N1C(=O)N1CCN(C(=O)c2ccc(OCc3ccccc3)cc2)CC1 (single isomer, unassigned)	4	6.92	–	–
O=C(CCCC(=O)N1CCN(C(=O)N2C(=O)[C@H](CC3CCNCC3)C2C(=O)O)CC1)Nc1ccccc1 (single isomer, unassigned)	12	5.87	–	–
CC(C)(C)NC(=O)N1CCN(C(=O)N2C(=O)[C@H](CCCN=C(N)N)C2C(=O)O)CC1 (single isomer, unassigned)	–	7.14	–	pIC50 [4]: 6.37; pIC50 [6]: < 5.08; pIC50 [7]: 8.35
O=C(O)C1[C@@H](CC2CCNCC2)C(=O)N1C(=O)N1CCN(C(=O)Cc2ccc(-c3ccccc3)cc2)CC1 (single isomer, unassigned)	5	6.13	–	–
O=C(O)C1[C@@H](CC2CCNCC2)C(=O)N1C(=O)N1CCN(C(=O)c2cc3cc(F)ccc3[nH]2)CC1 (single isomer, unassigned)	450	–	63	–
O=C(O)C1[C@@H](CC2CCNCC2)C(=O)N1C(=O)N1CCN(C(=O)c2ccccc2Oc2ccccc2)CC1 (single isomer, unassigned)	120	–	2	–
O=C(O)C1[C@@H](CC2CCNCC2)C(=O)N1C(=O)N1CCN(C(=O)c2ccc3ccccc3n2)CC1 (single isomer, unassigned)	110	–	51	–
O=C(O)C1[C@@H](CC2CCNCC2)C(=O)N1C(=O)N1CCN(C(=O)Cc2ccc3ccccc3c2)CC1 (single isomer, unassigned)	70	–	22	–
O=C(O)C1[C@@H](CC2CCNCC2)C(=O)N1C(=O)N1CCN(C(=O)Cc2ccc(CCCc3ccccc3)cc2)CC1 (single isomer, unassigned)	9	5.80	–	–
O=C(O)C1[C@@H](CC2CCNCC2)C(=O)N1C(=O)N1CCN(C(=O)CCCCCc2cccc3ccccc23)CC1 (single isomer, unassigned)	1	6.62	–	–
CCCCCCc1ccc(-c2ccc(C(=O)N3CCN(C(=O)N4C(=O)[C@H](CC5CCNCC5)C4C(=O)O)CC3)cc2)cc1 (single isomer, unassigned)	120	5.92	–	–
O=C(O)C1[C@@H](CC2CCNCC2)C(=O)N1C(=O)N1CCN(C(=O)CCCCCCc2cccc3ccccc23)CC1 (single isomer, unassigned)	1	6.49	–	–
O=C(O)C1[C@@H](CC2CCNCC2)C(=O)N1C(=O)N1CCN(C(=O)c2ccc(-c3ccccc3)cc2)CC1 (single isomer, unassigned)	6	6.92	–	–
O=C(O)C1[C@@H](CC2CCNCC2)C(=O)N1C(=O)N1CCN(C(=O)c2ccc(C3CCCCC3)cc2)CC1 (single isomer, unassigned)	40	–	76	–
O=C(O)C1[C@@H](CC2CCNCC2)C(=O)N1C(=O)N1CCN(C(=O)Cc2ccc3c(c2)OCO3)CC1 (single isomer, unassigned)	55	–	19	–
O=C(O)C1[C@@H](CC2CCNCC2)C(=O)N1C(=O)N1CCN(C(=O)c2ccc3ccccc3c2)CC1 (single isomer, unassigned)	–	–	72	–
